Measurements: ChEMBL document CHEMBL1153136, “Novel benzoylpiperidine-based stearoyl-CoA desaturase-1 inhibitors: Identification of 6-[4-(2-methylbenzoyl)piperidin-1-yl]pyridazine-3-carboxylic acid (2-hydroxy-2-pyridin-3-ylethyl)amide and its plasma triglyceride-lowering effects in Zucker fatty rats” (Bioorg Med Chem Lett, 2010)
Converted amounts (≈) assume the structure as drawn. The source made the active and inactive calls. The rule behind the calls is not given here.

Key:
Acyl-CoA desaturase 1 = molecular target: T1, Acyl-CoA desaturase 1 (Mus musculus, UniProt P13516); test: Inhibition of Scd1 in mouse liver microsomes assessed as conversion of [14C]stearate to [14C]oleate pretreated for 10 mins measured after 60 mins; set-up: species or system Microsome
T1 sequence (P13516 whole entry): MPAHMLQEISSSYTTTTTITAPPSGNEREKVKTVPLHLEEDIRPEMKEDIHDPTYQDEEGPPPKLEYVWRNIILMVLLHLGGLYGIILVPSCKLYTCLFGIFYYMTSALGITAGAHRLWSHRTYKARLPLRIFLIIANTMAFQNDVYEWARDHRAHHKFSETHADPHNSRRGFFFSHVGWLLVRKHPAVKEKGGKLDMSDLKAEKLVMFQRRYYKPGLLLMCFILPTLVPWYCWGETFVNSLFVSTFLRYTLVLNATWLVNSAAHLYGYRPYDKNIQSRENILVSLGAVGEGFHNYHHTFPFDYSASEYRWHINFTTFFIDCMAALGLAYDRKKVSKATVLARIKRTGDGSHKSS

Stearoyl-CoA desaturase [1] = molecular target: T2, Stearoyl-CoA desaturase (Homo sapiens, UniProt O00767); test: Inhibition of human Scd1 expressed in HEK293A cells assessed as conversion of [14C]stearate to [14C]oleate pretreated for 30 mins measured after 4 hrs; type: cell-based, HEK293-A
T2 sequence (O00767 whole entry): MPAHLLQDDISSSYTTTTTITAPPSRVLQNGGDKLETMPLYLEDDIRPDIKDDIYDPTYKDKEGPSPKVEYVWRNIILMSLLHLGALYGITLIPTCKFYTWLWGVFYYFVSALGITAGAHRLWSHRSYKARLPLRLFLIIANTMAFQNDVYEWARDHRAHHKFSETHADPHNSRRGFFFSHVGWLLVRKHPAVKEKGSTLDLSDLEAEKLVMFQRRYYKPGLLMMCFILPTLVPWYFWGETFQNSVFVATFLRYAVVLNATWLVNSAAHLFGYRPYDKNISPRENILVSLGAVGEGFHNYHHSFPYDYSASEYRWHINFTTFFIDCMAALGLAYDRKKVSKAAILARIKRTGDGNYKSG

Stearoyl-CoA desaturase [2] = molecular target: T2, Stearoyl-CoA desaturase; test: Inhibition of Scd1 in human HEK293A cell microsomes assessed as conversion of [14C]stearate to [14C]oleate pretreated for 10 mins measured after 60 mins; set-up: species or system HEK293-A, Microsome
Mus musculus = test: Inhibition of Scd1 in po dosed db/db mouse assessed as [14C]oleate to [14C]stearate ratio in liver administered 2 hrs before [14C]stearate challenge measured after 1 hr; type: functional; details: read-out: ID50 (the source's name)
[3] = molecular target: T3, Stearoyl-CoA desaturase (Homo sapiens) (UniProt O00767); test: Inhibition of human Scd1 assessed as conversion of [14C]stearate to [14C]oleate at 10 uM pretreated for 30 mins measured after 4 hrs
T3 sequence (whole entry): T2 sequence (O00767 whole entry)

[4] = Solubility in aqueous acidic solution at pH 1.2; type: physicochemical
[5] = Solubility in neutral solution at pH 6.8; type: physicochemical
[6] = Metabolic stability in mouse liver S9 fraction assessed as compound remaining after 30 mins; type: ADME, subcellular; details: read-out: Stability
[7] = Half life in C57BL/6 mouse at 20 mg/kg, po; type: ADME, organism-based; set-up: dose 20 mg/kg, route oral; details: in vivo
[8] = AUC (0 to 8 hrs) in C57BL/6 mouse at 20 mg/kg, po; type: ADME, organism-based; set-up: time < 8 hr, dose 20 mg/kg, route oral; details: plasma
[9] = Oral bioavailability in C57BL/6 mouse at 20 mg/kg; type: ADME, organism-based; details: in vivo
Rattus norvegicus [10] = test: Reduction of plasma triglyceride level in Zucker fatty rat at 30 mg/kg, po qd for 7 days; type: functional; set-up: scale not given: the % may be the effect or the level left
Rattus norvegicus [11] = test: Reduction of plasma triglyceride level in po dosed Zucker fatty rat administered qd for 7 days; type: functional, organism-based
Rattus norvegicus [12] = test: Toxicity in Zucker fatty rat assessed as reduction of body weight at 30 mg/kg, po qd for 7 days; type: organism-based; set-up: dose 30 mg/kg, route oral; scale not given: the % may be the effect or the level left; details: in vivo, 168 h
Rattus norvegicus [13] = test: Reduction of plasma glucose level in Zucker fatty rat at 30 mg/kg, po qd for 7 days; type: functional, organism-based; set-up: dose 30 mg/kg
Rattus norvegicus [14] = test: Reduction of plasma insulin level in Zucker fatty rat at 30 mg/kg, po qd for 7 days; type: functional, organism-based; set-up: dose 30 mg/kg
Rattus norvegicus [15] = test: Toxicity in Zucker fatty rat assessed as induction of cutaneous abnormalities at 30 mg/kg, po qd for 7 days; type: organism-based; set-up: dose 30 mg/kg, route oral; details: in vivo, 168 h
Rattus norvegicus [16] = test: Toxicity in Zucker fatty rat assessed as induction of narrow eye fissure at 30 mg/kg, po qd for 7 days; type: organism-based; set-up: dose 30 mg/kg, route oral; details: in vivo, 168 h
[17] = Half life in C57BL/6 mouse at 5 mg/kg, iv; type: ADME, organism-based; set-up: dose 5 mg/kg, route intravenous; details: in vivo
[18] = Clearance in C57BL/6 mouse at 5 mg/kg, iv; type: ADME, organism-based; set-up: dose 5 mg/kg, route intravenous; details: in vivo
[19] = Volume of distribution in C57BL/6 mouse at 5 mg/kg, iv; type: ADME, organism-based; set-up: dose 5 mg/kg, route intravenous; details: in vivo
[20] = Cmax in C57BL/6 mouse at 20 mg/kg, po; type: ADME, organism-based; set-up: dose 20 mg/kg, route oral; details: in vivo

Cc1ccccc1C(=O)C1CCN(c2ccc(C(=O)NCC(O)c3ccccc3F)nn2)CC1 (stereo unspecified)
IC50 (Acyl-CoA desaturase 1): 9 nM | IC50 (Stearoyl-CoA desaturase [1]): 60 nM | IC50 (Stearoyl-CoA desaturase [2]): 22 nM | ED50 (Mus musculus): 17 mg/kg

O=C(NCC(O)c1ccccc1)c1ccc(N2CCC(C(=O)c3ccccc3C(F)(F)F)CC2)nn1 (stereo unspecified)
IC50 (Acyl-CoA desaturase 1): 2 nM | IC50 (Stearoyl-CoA desaturase [1]): 14 nM | IC50 (Stearoyl-CoA desaturase [2]): 7 nM | inhibition [3]: 9% | solubility [4]: 84 µM (≈ 41.9 µg/mL) | solubility [5]: < 0.5 µM | remaining at 0.5 h [6]: 47%

Cc1ccccc1C(=O)C1CCN(c2ccc(C(=O)NCC(O)c3cccs3)nn2)CC1 (stereo unspecified)
IC50 (Acyl-CoA desaturase 1): 7 nM | IC50 (Stearoyl-CoA desaturase [1]): 25 nM | IC50 (Stearoyl-CoA desaturase [2]): 44 nM | ED50 (Mus musculus): 14 mg/kg

O=C(NCC(O)c1ccccc1)c1ccc(N2CCC(C(=O)c3ccccc3)CC2)nn1 (stereo unspecified)
IC50 (Acyl-CoA desaturase 1): 153 nM | IC50 (Stearoyl-CoA desaturase [1]): 108 nM | IC50 (Stearoyl-CoA desaturase [2]): 292 nM | inhibition [3]: < 5%

O=C(NCC(O)c1ccccc1)c1ccc(N2CCC(C(=O)c3ccccc3OC(F)(F)F)CC2)nn1 (stereo unspecified)
IC50 (Acyl-CoA desaturase 1): 5 nM | IC50 (Stearoyl-CoA desaturase [1]): 103 nM | IC50 (Stearoyl-CoA desaturase [2]): 10 nM | inhibition [3]: < 5% | solubility [4]: 83 µM (≈ 42.7 µg/mL) | solubility [5]: < 0.5 µM | remaining at 0.5 h [6]: 22%

Cc1ccccc1C(=O)C1CCN(c2ccc(C(=O)NCC(O)c3ccsc3)nn2)CC1 (stereo unspecified)
IC50 (Acyl-CoA desaturase 1): 3 nM | IC50 (Stearoyl-CoA desaturase [1]): 21 nM | IC50 (Stearoyl-CoA desaturase [2]): 7 nM | ED50 (Mus musculus): 16 mg/kg

O=C(NCCc1ccccc1)c1ccc(N2CCN(C(=O)c3ccccc3C(F)(F)F)CC2)cc1
IC50 (Acyl-CoA desaturase 1): 150 nM | IC50 (Stearoyl-CoA desaturase [2]): 820 nM

Cc1ccccc1C(=O)C1CCN(c2ccc(C(=O)NCC(O)c3ccncc3)nn2)CC1 (stereo unspecified)
IC50 (Acyl-CoA desaturase 1): 34 nM | IC50 (Stearoyl-CoA desaturase [1]): 144 nM | IC50 (Stearoyl-CoA desaturase [2]): 187 nM

COc1ccccc1C(=O)C1CCN(c2ccc(C(=O)NCC(O)c3ccccc3)nn2)CC1 (stereo unspecified)
IC50 (Acyl-CoA desaturase 1): 52 nM | IC50 (Stearoyl-CoA desaturase [1]): 1050 nM | IC50 (Stearoyl-CoA desaturase [2]): 311 nM | inhibition [3]: < 5%

O=C(NCCc1ccccc1)c1ccc(N2CCN(C(=O)c3ccccc3C(F)(F)F)CC2)cn1
IC50 (Acyl-CoA desaturase 1): 370 nM | IC50 (Stearoyl-CoA desaturase [2]): 250 nM

Cc1ccccc1C(=O)C1CCN(c2ccc(C(=O)NCC(O)c3cccnc3)nn2)CC1 (stereo unspecified)
half-life [7]: 54 min | AUC(0-t) at 8 h [8]: 7800 ng·h/mL | bioavailability [9]: 68% | Activity (Rattus norvegicus [10]): 56% | Activity (Rattus norvegicus [11]): Dose-dependent effect | Activity (Rattus norvegicus [12]): 15% | Activity (Rattus norvegicus [13]): inactive | Activity (Rattus norvegicus [14]): inactive | Activity (Rattus norvegicus [15]): Non-toxic | Activity (Rattus norvegicus [16]): Non-toxic | IC50 (Acyl-CoA desaturase 1): 37 nM | IC50 (Stearoyl-CoA desaturase [1]): 43 nM | IC50 (Stearoyl-CoA desaturase [2]): 28 nM | solubility [4]: > 100 µM | solubility [5]: 29 µM (≈ 12.9 µg/mL) | remaining at 0.5 h [6]: 1.1% | ED50 (Mus musculus): 3 mg/kg | half-life [17]: 78 min | clearance [18]: 29 mL/min/kg | Vd [19]: 2.4 L/kg | Cmax [20]: 6300 ng/mL

Cc1ccccc1C(=O)C1CCN(c2ccc(C(=O)NCC(O)c3ccccc3)nn2)CC1 (stereo unspecified)
half-life [7]: 48 min | AUC(0-t) at 8 h [8]: 500 ng·h/mL | bioavailability [9]: 6% | inhibition [3]: < 5% | solubility [4]: 88 µM (≈ 39.1 µg/mL) | solubility [5]: 3 µM (≈ 1.33 µg/mL) | remaining at 0.5 h [6]: 58% | ED50 (Mus musculus): 12 mg/kg | half-life [17]: 36 min | clearance [18]: 42 mL/min/kg | Vd [19]: 0.9 L/kg | Cmax [20]: 300 ng/mL

Cc1ccccc1C(=O)C1CCN(c2ccc(C(=O)NCC(O)c3cccc(F)c3)nn2)CC1 (stereo unspecified)
IC50 (Acyl-CoA desaturase 1): 5 nM | IC50 (Stearoyl-CoA desaturase [1]): 11 nM | IC50 (Stearoyl-CoA desaturase [2]): 6 nM | ED50 (Mus musculus): 14 mg/kg

Cc1ccccc1C(=O)C1CCN(c2ccc(C(=O)NCC(O)c3ccccn3)nn2)CC1 (stereo unspecified)
IC50 (Acyl-CoA desaturase 1): 95 nM | IC50 (Stearoyl-CoA desaturase [1]): 390 nM | IC50 (Stearoyl-CoA desaturase [2]): 180 nM

O=C(NCCc1ccccc1)c1ccc(N2CCN(C(=O)c3ccccc3C(F)(F)F)CC2)nc1
IC50 (Acyl-CoA desaturase 1): 194 nM | IC50 (Stearoyl-CoA desaturase [2]): 99 nM

Cc1ccccc1C(=O)C1CCN(c2ccc(C(=O)NCC(O)c3ccc(F)cc3)nn2)CC1 (stereo unspecified)
IC50 (Acyl-CoA desaturase 1): 7 nM | IC50 (Stearoyl-CoA desaturase [1]): 22 nM | IC50 (Stearoyl-CoA desaturase [2]): 5 nM | ED50 (Mus musculus): 14 mg/kg

O=C(NCC(O)c1ccccc1)c1ccc(N2CCC(C(=O)c3ccc(F)cc3)CC2)nn1 (stereo unspecified)
IC50 (Acyl-CoA desaturase 1): 74 nM | IC50 (Stearoyl-CoA desaturase [1]): 80 nM | IC50 (Stearoyl-CoA desaturase [2]): 118 nM | inhibition [3]: 12%
